Counter-ions that a name gives are not always drawn. Like-named read-outs stand apart in the source and are kept apart here.

A short description of data set [1]: MTT assay of cell viability. The format is cell-based. The following applies: human, MCF-7 cells, 24-hr exposure, relative to untreated control. On the procedure: Figure 3 Cytotoxicity and specificity of compounds A., B. Subconfluent proliferating cells were incubated with the indicated compound at the indicated concentration for 24-hr and then harvested for MTT dye reduction assays. Cell viability values (relative to untreated control cells) are means ± SEMs of 10 replicate wells. C., D. Subconfuent proliferating T47D cells were transfected overnight with the MMTV-Luc reporter (0.25 μg per well in 24-well dishes), washed, and allowed to recover for several hr in fresh medium. The cells were then treated with a synthetic progestin (R5020, 10 nM) plus the indicated compound at the indicated concentration for 24 hr and then harvested for luciferase assays. Luciferase activity is expressed relative to the MMTV-Luc control (no agents added) (panel A) or as a percentage of the +R5020 positive control (panel B). Values are means ± SEMs of four replicate wells. The data shown in each panel are representative of three independent experiments.
Assays were performed as described before. After the indicated treatment, cells in 96-well dishes were solubilized and assayed for MTT dye reduction. Cell viability was expressed as the amount of dye reduction relative to untreated control cells. and calculated as means ± SEMs for 10 replicate wells.

Data set [2] concerns the target T1, estrogen receptor-alpha (ER) (Homo sapiens, UniProt P03372).
T1 sequence (P03372 1-595): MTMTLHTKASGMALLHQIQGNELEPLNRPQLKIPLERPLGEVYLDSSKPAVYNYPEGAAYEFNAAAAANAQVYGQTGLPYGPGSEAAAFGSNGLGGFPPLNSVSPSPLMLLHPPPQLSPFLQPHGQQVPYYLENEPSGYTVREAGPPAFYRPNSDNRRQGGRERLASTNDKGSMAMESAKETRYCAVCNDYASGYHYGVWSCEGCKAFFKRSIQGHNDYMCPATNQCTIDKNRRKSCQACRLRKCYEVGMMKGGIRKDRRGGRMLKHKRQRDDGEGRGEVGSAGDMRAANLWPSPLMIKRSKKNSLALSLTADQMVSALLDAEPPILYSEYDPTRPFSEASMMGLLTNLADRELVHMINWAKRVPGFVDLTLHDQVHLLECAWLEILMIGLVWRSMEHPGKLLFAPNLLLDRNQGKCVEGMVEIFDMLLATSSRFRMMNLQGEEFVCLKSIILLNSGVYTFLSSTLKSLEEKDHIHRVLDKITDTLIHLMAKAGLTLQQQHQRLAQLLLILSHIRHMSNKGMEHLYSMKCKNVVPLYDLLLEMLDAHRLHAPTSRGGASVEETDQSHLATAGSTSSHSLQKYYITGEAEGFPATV
As to the kind of experiment: constitutive ER activity, ERE-TK-Luc reporter, in anti-estrogen resistant LCC9 cells. The data set is classed as cell-based. Set-up: LCC9 cells in 24-well dishes were transfected overnight with the ERE-TK-Luc reporter plasmid; endogenous in cells; host or cells: LCC9. The following applies: LCC9, no E2, 24 hr; read-out: IC50 for inhibition of ER activity in LCC9. On the procedure:
(§1) For MCF-7, luciferase activity is expressed as a fold-change relative to the no E2 control. For LCC9, luciferase activity is expressed relative to the control without the reporter present. Values plotted are means ± SEMs of four replicate wells. The data shown in each panel are representative of three independent experiments.
The cells were then treated with the indicated concentrations of the six bioactive compounds or vehicle only (DMSO) for 24-hr and assayed for luciferase activity. Luciferase activity is expressed as a percentage of the DMSO control. Values are means ± SEMs of four replicate wells. The data shown in each panel are representative of three independent experiments.
The cells were then harvested for luciferase assays. Luciferase activity was expressed as a fold-change relative to the no reporter control. Values plotted are means ± SEMs of four replicate wells. The data shown are representative of three independent experiments.
(§2) Subconfluent cells in 24-well dishes were transfected overnight with 0.25 μg of each indicated vector plus the ERE-TK-Luc reporter in serum-free DMEM containing Lipofectamine2000 (Life Technologies, Washington, DC). Total transfected DNA was kept constant by addition of control vector. The cells were washed, incubated in phenol red-free DMEM containing 5% charcoal-stripped serum (obtained from the Tissue Culture Shared Resource) (0.2 ml/well) ± E2 (10 nM) ± the indicated compound for 24-hr, and harvested for luciferase assays. For each assay condition was tested in quadrupicate. To monitor the transfection efficiency, cultures were co-transfected with plasmid pRSV-β-gal (Promega, Madison, WI) to visualize transfected cells by X-gal staining.

Data set [3] deals with T1, estrogen receptor-alpha (ER). Put plainly: ER activity, ERE-TK-Luc reporter, in MCF-7 cells. The format is cell-based. Set-up: MCF-7 cells in 24-well dishes were transfected overnight with the ERE-TK-Luc reporter plasmid; endogenous in cells; host or cells: MCF-7. To be noted: for IC50: read-out: IC50 for inhibition of E2-stimulated ER activity. How it is done: as §1
The cells were then treated ± 17β-estradiol (E2, 10 nM) and with the indicated compound (@ 1 μM or 20 μM) or vehicle only (DMSO) for 24 hr and assayed for luciferase activity. Luciferase activity is expressed as a fold-change relative to the no E2 control. The data shown are representative of three independent experiments.
as §2

The test system of another data set is LCC9 cells. Put plainly: cell proliferation assay (cell counts days 1, 3, 5), LCC9. The format is cell-based, human. To be noted: DMEM + 5% charcoal-stripped serum, up to 5 days; 4631-P/1 at 1 μM. On the procedure:
Starting on day 1, cells were refed daily with fresh medium (DMEM plus 5% CSS) containing the indicated agent. In panel F, the cells were refed with medium also containing ER-siRNA or control-siRNA (100 nM) at the indicated times. Wells were counted on days 1, 3, and 5 to determine cell numbers. Values are means ± SEMs of triplicate wells. The data shown in each panel are representative of three independent experiments.
Assays were performed using as the growth medium phenol red-free DMEM containing 5% charcoal-stripped serum. Briefly, proliferating cells were harvested using trypsin, counted, inoculated into 12-well dishes at 1 × 10^4 cells per well on day 0 and allowed to attach and recover for 24 hr. The cells were then treated with the indicated agents for up to five days, with daily refeeding with fresh medium and agents. Triplicate wells were counted by Coulter Counter on days 1, 3, and 5. For experiments using siRNAs, cells were treated with the indicated siRNA (100 nM) starting on day -2, and fresh siRNA was added on days 0, 2, and 4.

The next data set relates to LCC9 tumor xenografts. Put plainly: LCC9 tumor xenograft growth in Balb/c nude mice. The data set is classed as in vivo. On the procedure:
Figure 13 Compound NSC 35446 hydrochloride salt inhibits the growth of LCC9 breast cancer xenografts in athymic nude mice Experiments were performed as described in the Methods and Results sections. The effects of the compound administered intraperitoneally every other day at 5 mg/kg A., 10 mg/kg B., and 20 mg/kg C. are shown and compared with that of vehicle only (control, CT). Values of tumor volume are means ± SDs for N=5 mice per group. Athymic Balb/c nude mice were purchased from Charles River. Mice were housed 5 per cage with microisolater tops and provided food (Furina mice chow) and water ad libitum. The light cycle was regulated automatically (12 hours light/dark cycle) and temperature 23±1°C. Animals were allowed to acclimate to this environment for one week prior to usage. The Georgetown University Animal Care and Use Committee approved all animal studies in accordance with NIH guidelines. The stock solution of NSC 35446 hydrochloride was dissolved in DMSO at 200 mg/ml. The working solution was prepared using 10% Kolliphor ELP (Sigma-Aldrich), 3% PEG400 (Hampton Research, HR2-603); and 87% PBS to give a 1 mg/ml solution. Female Balb/c nude mice (18-22g) were injected with LCC9 cells (3 × 10^6 cells in a volume of 0.3 ml) in the subcutaneous tissue of the right axillary region. The mice were randomly sorted into groups with N=5 mice per group; and treatments were initiated when the tumors reached 150-200 mm^3. The tumor-bearing mice were given intraperitoneal injections of vehicle only (control), 5 mg/kg, 10 mg/kg, or 20 mg/kg of NSC 35446 hydrochloride every other day. The tumor size of each mouse was measured by caliper and calculated by the formula: length × width × width/2 and the body weight was recorded.

A short description of data set [4]: body weight and signs of acute toxicity in tumor-bearing Balb/c nude mice. The following applies: 5, 10 or 20 mg/kg intraperitoneally every other day, 21-day study interval. The format is in vivo. How it is done:
For these studies we used LCC9 cells grown as subcutaneous tumors in Balb/c nude mice. To improve water solubility, the compound tested (NSC 35446) was prepared as the hydrochloride salt, as described in the Methods section. The mice were dosed intraperitoneally with vehicle (control) or NSC 35446 hydrochloride every other day at 5, 10, or 20 mg/kg. Treatments were initiated when the tumors reached 150-200 mm^3. […] For most time points except the earliest, differences in size between the treated and control tumors were significant (P < 0.05, ANOVA, Tukey's multiple comparison test). There appeared to be some delay in tumor growth at the 5 mg/kg dose; but by day 21, the treated tumors were approaching the control tumors in size. The T/C ratios (ie., ratios of the changes in volume of treated tumors to that of control tumors) on day-21 were: 0.77 (5 mg/kg), 0.24 (10 mg/kg), and 0.15 (20 mg/kg).
Athymic Balb/c nude mice were purchased from Charles River. Mice were housed 5 per cage with microisolater tops and provided food (Furina mice chow) and water ad libitum. The light cycle was regulated automatically (12 hours light/dark cycle) and temperature 23±1°C. Animals were allowed to acclimate to this environment for one week prior to usage. […] The tumor size of each mouse was measured by caliper and calculated by the formula: length × width × width/2 and the body weight was recorded.

The mark [5] stands for this setting: MCF7, MCF-7, E2 10 nM, compound 1 μM, 24 hr, read-out: inhibition of E2-stimulated ER activity at 1 μM.

`CC(C)=CC1C(COC(=O)c2cc3c(cc2Cl)OCO3)C1(C)C` (centres unmarked) [48693-K/1] registered a viability at 24 h, 1 µM in data set [1] of 100%. The viability at 24 h, 20 µM in data set [1] is greater than 90%. Also, the IC50 in data set [2] is 4 µM; in data set [3] (MCF-7, E2 10 nM, 24 hr), no more than 1 µM. In addition, the inhibition at 1 µM in data set [3] (MCF7, read-out: inhibition of E2-stimulated ER activity at 1 μM) is no less than 50%.
For `Sc1ccc2ccccc2c1CNCc1ccccc1` [81747-N/1], the viability at 24 h, 1 µM in data set [1] was 100%. In addition, in data set [1], the viability at 24 h, 20 µM is greater than 90%. Besides, the IC50 is 30 µM in data set [2] and no more than 1 µM in data set [3] (MCF-7, E2 10 nM, 24 hr). Moreover, the inhibition at 1 µM in data set [3] (setting [5]) is no less than 50%.
As for `c1ccc2c(c1)-c1ccccc1C2N1CC2CCC(CC2)C1` [88999-U/1], the IC50 is no more than 1 µM in data set [2] and no more than 1 µM in data set [3] (MCF-7, E2 10 nM, 24 hr). In addition, the inhibition at 1 µM in data set [3] (setting [5]) is no less than 50%.
As to `OCC(CCc1c[nH]c2ccccc12)c1c[nH]c2ccccc12` (centres unmarked) [372127-T/1], the IC50 is no more than 1 µM in data set [2] and no more than 1 µM in data set [3] (MCF-7, E2 10 nM, 24 hr). Further, the “inhibition of E2-stimulated ER activity at 1 μM” value in data set [3] (MCF-7, E2 10 nM, compound 1 μM, 24 hr) is no less than 50%.
Turning to `C[C@]12CC[C@@H]3c4ccc(O)cc4CC[C@H]3[C@@H]1CC[C@@H]2O` [E2, 17β-estradiol, reference compound], the “effect on LCC9 cell growth, single agent” value with LCC9 cells is recorded as “Neither E2 nor Tam significantly altered growth of LCC9”.
Consider `O=C(CC(c1ccccc1)N1CCCCC1)c1ccccc1` (centres unmarked) [NSC 35446 hydrochloride, 1,3-diphenyl-3-(piperidin-1-yl)propan-1-one], for which the “T/C ratio (change in volume of treated tumors to control tumors) on day-21” value in the data set with LCC9 tumor xenografts (5 mg/kg intraperitoneally every other day) worked out at 0.77; in the data set with LCC9 tumor xenografts (10 mg/kg intraperitoneally every other day), 0.24; in the data set with LCC9 tumor xenografts (20 mg/kg intraperitoneally every other day) it was 0.15. In addition, the “effect on LCC9 tumor growth” value in the data set on LCC9 tumor xenografts (intraperitoneally every other day, 21-day study) is “efficacious at the 10 mg/kg and 20 mg/kg doses in slowing tumor growth or causing tumor stasis”. Further, the “body weight and signs of acute toxicity” value in data set [4] is given as “No significant changes in body weight or obvious signs of acute toxicity”.
In the case of `CC/C(=C(\c1ccccc1)c1ccc(OCCN(C)C)cc1)c1ccccc1` [Tam, Tamoxifen, reference compound], the “effect on LCC9 cell growth, single agent” value in the data set with LCC9 cells is on record as “Neither E2 nor Tam significantly altered growth of LCC9”.
